Experimental data as given in patent publication US20170114025A1, “METHODS FOR INHIBITING NECROPTOSIS” (Catalyst Therapeutics Pty Ltd, priority 2014, published 2017).

What was measured:
[1] = system: wild type MDFs (mouse dermal fibroblasts); experiment: Cell death assay, TSQ-induced necroptosis in MDFs (PI, flow cytometry); assay type: cell-based; details: 24 h
From the text: (§1) Mouse dermal fibroblasts (MDFs) were isolated from three MlkI^−/− mice and three congenic wild type mice and then immortalized by SV40 large T antigen to generate three biologically independent cell lines, as described in Murphy J M, et al. (2013), Immunity 39(3):443-453. Immortalized MDFs were similarly prepared from three Ripk3^−/− mice and congenic wild type mice. MDFs and HEK293T were maintained in Dulbecco's modified Eagle's medium (DMEM) supplemented with 8-10% v/v fetal calf serum (FCS), and 5 μg/mL puromycin for lines stably transduced with inducible expression constructs for MLKL. U937 cells were cultured in RPMI1640 supplemented with 8% v/v FCS. Cell death assays were carried out in 24 well plates, seeding 1×10^5 cells per well. Cells attached over 4 h in the presence of 10 ng/mL doxycycline or 20 ng/mL were then treated with assorted combinations of Necrostatin (50 μM) and Q-VD-OPh (5 μM) 30 min prior to addition of TNF (100 ng/mL) and Smac mimetic (500 nM). After 24 h for MDF cells or 48 h for U937 cells, cells were harvested and PI positive cells (1 μg/mL) quantified using a BD FACSCalibur flow cytometer.

U937 cells = experiment: Counter screen: cell viability without TSQ cocktail (off target effect); assay type: cell-based; details: U937 without TSQ cocktail
Description: In parallel, all compounds are tested for their ability to affect cell viability. The same U937 cells are treated with compound in DMSO without the TSQ cocktail. This counter screen enables evaluation of off-target effects. In this case gain, cell viability is measured by flow cytometry after PI staining.

wild-type MDFs = experiment: Toxicity of compound in wild-type MDFs; assay type: cell-based; details: triplicate experiments
From the text: as §1

recombinant RIPK3 = target: T1, recombinant RIPK3 (Mus musculus, UniProt Q9QZL0); experiment: In vitro kinase assay; assay type: biochemical; details: for concentrations leading to enhanced RIPK3-mediated phosphorylation of MLKL: mouse MLKL(179-464) as substrate
T1 construct: Recombinant mRIPK3 kinase domain was expressed and purified from Sf21 cells; made in house; host or cells: Sf21 cells
T1 sequence (Q9QZL0 22-292 limits assumed): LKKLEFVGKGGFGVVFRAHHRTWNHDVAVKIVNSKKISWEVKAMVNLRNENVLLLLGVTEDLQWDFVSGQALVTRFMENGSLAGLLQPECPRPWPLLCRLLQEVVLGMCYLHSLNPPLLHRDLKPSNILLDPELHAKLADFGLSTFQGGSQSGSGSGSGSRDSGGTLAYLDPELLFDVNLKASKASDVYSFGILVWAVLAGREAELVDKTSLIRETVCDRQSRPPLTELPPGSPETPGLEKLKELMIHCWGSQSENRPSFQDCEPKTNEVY
Description: In vitro kinase assays were performed as described previously in Murphy J M, et al. (2013), Immunity 39(3):443-453 and Cook W D, et al. (2014) Cell Death Diff. in press, but for the addition of either a DMSO control or up to 12.5 μM of test compound in 0.5% v/v final DMSO.

[2] = system: MLKL translocation in MDFs; experiment: Fractionation and Blue Native PAGE, MLKL membrane translocation; assay type: cell-based, mouse; details: TSQ up to 6 hours, 1 μM test compound, anti-MLKL blots of Blue-Native PAGE
Description: MDFs were seeded in 6 well plates (5×10^5 per well) and allowed to attach overnight. Cells were stimulated with TSQ for up to 6 hours in the presence of 1 μM test compound or DMSO control. Cells were harvested by scraping, washed once in PBS and permeabilized in buffer (20 mM Hepes (pH 7.5), 100 mM KCl, 2.5 mM MgCl2, and 100 mM sucrose) containing 0.025% digitonin (BIOSYNTH, Staad, Switzerland) and supplemented with EDTA-free Complete protease inhibitor cocktail (Roche), 2 μM N-ethyl maleimide, and phosphatase inhibitors (5 mM β-glycerophosphate, 1 mM Na Molybdate, 1 mM Na Pyrophosphate and 100 μM Na Fluoride). Permeabilization was confirmed by trypan blue uptake, and cytosolic and crude membrane fractions were separated by centrifugation at 11,000×g for 5 min. Digitonin was added to the cytoplasmic fraction to a final concentration of 1% and the crude membrane fraction was further solubilized in permeabilization buffer+1% digitonin and incubated on ice for 20 min. Crude membrane suspension was centrifuged at 11,000×g for 5 min and the supernatant loaded alongside cytoplasmic fraction on 4-16% Bis-Tris Native PAGE gel (LifeTechnologies). […] MLKL containing complexes were detected by anti-MLKL (3H1) Western blotting as described above.

transformed iBMDMs = experiment: Poly(I:C) experiment, RIP1-independent necroptosis; assay type: cell-based; details: poly:IC 50 ug/ml, zVAD 25 uM, 48 hrs
Description: Cells were harvested after 48 hrs. Cell death was analysed via propidium iodide staining and flow cytometry.

[3] = target: T2, human MLKL(190-471) pseudokinase domain (Homo sapiens, UniProt Q8NB16); experiment: STD NMR nucleotide competition, human MLKL; assay type: binding; parameters: His6 (pFastBac HTb, TEV-cleavable) (N, cleaved yes); made in house; host or cells: Sf21 insect cells; details: 200 μM compound, 200 μM nucleotide, 2 μM human MLKL(190-471)
T2 sequence (Q8NB16 190-471): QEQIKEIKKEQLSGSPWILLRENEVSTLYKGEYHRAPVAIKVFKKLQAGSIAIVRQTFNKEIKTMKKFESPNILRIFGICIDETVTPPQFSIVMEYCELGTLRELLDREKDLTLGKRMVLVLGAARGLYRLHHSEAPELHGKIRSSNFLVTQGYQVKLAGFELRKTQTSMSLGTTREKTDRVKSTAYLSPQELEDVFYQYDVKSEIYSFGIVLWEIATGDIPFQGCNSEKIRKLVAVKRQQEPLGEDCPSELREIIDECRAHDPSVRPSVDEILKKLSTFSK
Description: Nucleotides were dissolved in NMR buffer (20 mM HEPES, pH 7.5, 200 mM NaCl, 90% D2O, 10% H2O) at a final concentration of 200 μM in each sample of STD experiments. Three different samples were prepared for each nucleotide: (1) ATP or ADP with protein buffer added as equivalent volume of protein containing samples (2) ATP or ADP with MLKL pseudokinase domain at a final concentration of 2 μM (3) ATP or ADP with MLKL pseudokinase domain (2 μM) with test compound at 200 μM. […] Saturation of the protein resonances was achieved by a 4 s train of Gaussian pulses centred at −0.5 ppm. For the reference spectra, a similar saturation pulse was applied at a frequency centred 20,000 Hz off-resonance. A 15 ms T2-spin-lock period was employed before acquisition to allow the residual protein signal to decay. NMR data were processed in TOPSPIN version 3.2 (Bruker BioSpin).

CN(c1ccc(NC(=O)Nc2ccc(OC(F)(F)F)cc2)cc1)c1ccnc(Nc2cccc(S(N)(=O)=O)c2)n1 [Compound 1, 3-((4-(methyl(4-(3-(4-(trifluoromethoxy)phenyl)ureido)phenyl)amino)pyrimidin-2-yl)amino)benzenesulfonamide]
IC50 ([1]; Mus musculus, Fibroblast, read-out: IC50, rescue from TSQ-induced necroptosis): ~500 nM
cells rescued from TSQ-induced necroptosis ([1]; wt MDFs): ~50%
Off target effect (% cell death) at 500 nM (U937 cells; compound at 500 nM): <20%
Off target effect (% cell death) at 1 uM (U937 cells; compound at 1 uM): <20%
Off target effect (% cell death) at 5 uM (U937 cells; compound at 5 uM): 60%
Off target effect (% cell death) at 10 uM (U937 cells; compound at 10 uM): 79%
concentrations at which toxicity induces death of wild-type MDFs (wild-type MDFs): ≥ 5 µM
inhibition of RIPK3 catalytic activity and of RIPK3-mediated phosphorylation of MLKL (recombinant RIPK3; in vitro kinase assays): neither the catalytic activity of recombinant RIPK3 nor RIPK3-mediated phosphorylation of MLKL were inhibited
concentrations leading to enhanced RIPK3-mediated phosphorylation of MLKL (recombinant RIPK3): ≥ 10 µM
concentrations leading to enhanced RIPK3-mediated phosphorylation of MLKL (recombinant RIPK3; listed as compound 1): > 5 µM
impact on recombinant RIPK3 kinase activity (recombinant RIPK3; relative to DMSO control, up to 12.5 μM test compound): no impact
MLKL translocation to the membrane fraction [2]: retarded translocation to the membrane fraction
inhibition of Poly(I:C) and zVAD induced necroptosis (transformed iBMDMs): inhibits Poly(I:C) and zVAD induced necroptosis
competition with ATP and ADP for binding (STD NMR) [3]: can compete with (i) ATP and (ii) ADP
